According to patent US8124770B2, “Fluorescent cellular markers” (priority 2009, dated 2012):
Where two headings read alike, the source gives them in different places.

How the values were obtained:
Assay type in all cases: cell-based, human
[1] = test system: Epidermoid carcinoma A431 cells; assay: Cell cytotoxicity (growth inhibition) of BQS on A431 cells, Trypan Blue Exclusion; details: 5 to 100 uM, read-out: IC50 (inhibition of 50% of the cell population)
Experimental: Regarding the cytotoxicity, in order to determine the cell cytotoxicity of the BQS, duplicates cultures of 5×10^6 cells were seeded in 25 cm^2 flasks. The final volume on each plate was 9 ml of modified RPMI 1640 that contained the cell aliquot, media and BQS of present invention. Cells were then incubated for 4 hours to allow cells to adhere to the flask. Cells were cultured for 48 hours with BQS at concentration ranging from 5 to 100 uM. A negative control treated with ultra pure water (vehicle) was included in each experiment. […] At the end of the exposure period, media was removed and cultures rinsed twice with phosphate buffered saline (PBS) for removal of the compounds in solution. Cells detached with 5% trypsin enzyme, centrifuged, resuspended in fresh media and counted through a cell viability protocol, such as the Trypan Blue Exclusion analysis. Cell survival was calculated and plotted against time with the Microsoft Excel® software.

[2] = test system: caspases 3 and 7 in A431 cells; assay: Caspases 3 and 7 activation, Magic Red assay, on A431 cells; details: 48 hours of exposure, Cisplatin 3 uM positive control
Experimental: D. et al 2004; Blanc, C. et al 2000) making Cisplatin and Staurosporine appropriate positive controls for this assay. Cell culture media, such as RPMI 1640, modified with additional nutrients and additives such as Fetal Bovine serum and antibiotic has been added to improve the cell replication and prevent bacterial contamination was employed. […] The final volume on each plate was 9 ml of modified RPMI 1640 that contained the cell aliquot, media and drug. […] At the end of the treatment time cells were washed with PBS, detached with 5% trypsin enzyme and centrifuged. Cells were counted and aliquots were stained for an hour with cresyl violet (fluorochrome). […] Apoptotic cells (red) were distinguished from non apoptotic (non-fluorescent) using the negative and positive controls as reference.

[3] = test system: DNA and mitochondria of A431 tumor cells; assay: Intra cellular binding to organelles, wide-field fluorescence microscopy of A431 tumor cells; details: fluorescence microscope (FIG. 11)
A431 tumor cells = assay: Auto-fluorescence on A431 tumor cells, inverted fluorescence microscopy; details: at IC50 concentration, monitored through 72 hour period, Olympus CKX41
Experimental: Regarding the autofluorencense, Ellipticine was selected as a fluorescent positive control since it is a structural analog of ABQS's. The elipticine's IC50 dose in A431 was determine by treating A431 cell cultures (in duplicates) at concentrations ranging from 0 to 50 μM. The final volume on each plate was 9 mL of modified RPMI 1640 that contained the cell aliquot, media and drug. Cells were exposed to ABQS's and Ellipticine at their IC50 concentrations, incubated and monitored through a 72 hour period by inverted microscopy. An Olympus CKX41 inverted fluorescent microscope (50 w Hg lamp), with U filter; 40× objective. Photographs were obtained at 13-17 seconds of exposure using the Q Capture Software. Auto-fluorescent cells were distinguished from non-auto-fluorescent ones using the negative and positive controls as reference.

[4] = Homo sapiens, A-431, 48 hours exposure

Compound	IC50 ([1]; 48 hours exposure) [µM]	Caspases 3 and 7 activation [2] [%]	capacity to bind to cellular organelles [3]	auto fluorescence in cells (A431 tumor cells)	IC50 [1, 4] [µM]
7-Ethyl-3-nitrobenzimidazolo[3,2-a]quinolinium Chloride [NBQ38]	36	22±7	–	–	–
CC[n+]1c2ccccc2n2c3ccc(N)cc3ccc21.[Cl-] [ABQ38, 3-amino-7-ethylbenzimidazo[3,2-a]quinolinium chloride]	32	51±1	bind to DNA and mitochondria	auto fluorescence	–
Cc1ccc2sc3ccc4cc(N)c(Cl)cc4[n+]3c2c1.[Cl-] [ABQ95, 3-amino-2-chloro-10-methylbenzothiazolo[3,2-a]quinolinium chloride]	–	46±6	bind to DNA and mitochondria	–	36
N.N.[Cl][Pt][Cl] [Cisplatin, reference compound]	–	51±13	–	–	–
Cc1ccc2sc3ccc4cc([N+](=O)[O-])c(Cl)cc4[n+]3c2c1 [NBQ95, 2-Chloro-10-methyl-3-nitrobenzothiazolo[3,2-a]quinolinium chloride]	–	–	–	–	28
